Laboratory results published in ChEMBL document CHEMBL5126581, “Chlorinated benzothiadiazines inhibit angiogenesis through suppression of VEGFR2 phosphorylation” (Bioorg Med Chem, 2022).
Calls of active or inactive are those of the source. The rule behind the calls is not given here.

Columns and labels:
MDA-MB-468 = assay: Cytotoxicity against human MDA-MB-468 cells assessed as inhibition of cell growth incubated for 72 hrs by MTS assay; format: functional, cell-based; settings: MDA-MB-468, 72 h
HUVEC = assay: Antiangiogenic activity in HUVEC cells assessed as inhibition of VEGF-induced cell proliferation at 20 uM incubated for 48 hrs by MTT assay relative to control; format: functional; settings: Homo sapiens, values are per cent of control
[1] = target: T1, Vascular endothelial growth factor receptor 2 (Homo sapiens, UniProt P35968); assay: Inhibition of VEGFR2 phosphorylation in VEGF-induced HUVEC cells assessed as reduction in pVEGFR2 level at 20 uM incubated for 5 mins by Western blot analysis; format: cell-based
[2] = target: T2, Serine/threonine-protein kinase D2 (Homo sapiens) (UniProt Q9BZL6); assay: Inhibition of PRKD2 (unknown origin) assessed as residual activity at 10 uM incubated for 1 hr by KinomeScan analysis relative to control
T2 sequence (whole entry): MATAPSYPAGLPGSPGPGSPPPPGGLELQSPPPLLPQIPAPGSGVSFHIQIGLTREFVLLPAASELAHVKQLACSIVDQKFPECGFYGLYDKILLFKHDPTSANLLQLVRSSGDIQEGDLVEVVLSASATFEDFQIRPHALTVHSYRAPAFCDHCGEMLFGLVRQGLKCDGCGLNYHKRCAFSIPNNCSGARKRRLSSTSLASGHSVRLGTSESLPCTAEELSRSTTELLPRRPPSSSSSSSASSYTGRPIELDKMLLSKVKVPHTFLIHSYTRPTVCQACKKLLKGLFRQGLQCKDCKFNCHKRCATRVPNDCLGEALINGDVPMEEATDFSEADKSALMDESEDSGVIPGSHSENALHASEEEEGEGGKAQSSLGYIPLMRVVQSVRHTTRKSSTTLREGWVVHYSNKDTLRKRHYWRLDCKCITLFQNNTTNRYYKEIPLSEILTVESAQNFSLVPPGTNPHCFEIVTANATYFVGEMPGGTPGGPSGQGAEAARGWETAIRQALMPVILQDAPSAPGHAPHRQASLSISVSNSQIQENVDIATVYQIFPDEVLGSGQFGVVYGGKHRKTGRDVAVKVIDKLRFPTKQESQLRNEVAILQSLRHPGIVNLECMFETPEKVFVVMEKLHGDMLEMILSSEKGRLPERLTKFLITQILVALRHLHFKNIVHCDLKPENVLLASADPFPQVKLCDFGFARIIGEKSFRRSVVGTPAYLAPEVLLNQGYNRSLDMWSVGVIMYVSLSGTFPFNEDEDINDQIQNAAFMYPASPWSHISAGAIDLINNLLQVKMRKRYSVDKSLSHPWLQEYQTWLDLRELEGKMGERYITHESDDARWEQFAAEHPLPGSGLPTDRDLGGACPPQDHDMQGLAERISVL

[3] = Cytotoxicity against HEK293 cells assessed as inhibition of cell growth incubated for 72 hrs by MTS assay; format: toxicity, cell-based; settings: human
[4] = Selectivity index, ratio of IC50 for cytotoxicity against HEK293 cells to IC50 for cytotoxicity against human MDA-MB-468 cells; format: toxicity, cell-based; settings: HEK293 cells versus MDA-MB-468 cells, read-out: Ratio IC50
[5] = target: T3, Myosin light chain kinase family member 4 (Homo sapiens) (UniProt Q86YV6); assay: Inhibition of MYLK4 (unknown origin) assessed as residual activity at 10 uM incubated for 1 hr by KinomeScan analysis relative to control
T3 sequence (whole entry): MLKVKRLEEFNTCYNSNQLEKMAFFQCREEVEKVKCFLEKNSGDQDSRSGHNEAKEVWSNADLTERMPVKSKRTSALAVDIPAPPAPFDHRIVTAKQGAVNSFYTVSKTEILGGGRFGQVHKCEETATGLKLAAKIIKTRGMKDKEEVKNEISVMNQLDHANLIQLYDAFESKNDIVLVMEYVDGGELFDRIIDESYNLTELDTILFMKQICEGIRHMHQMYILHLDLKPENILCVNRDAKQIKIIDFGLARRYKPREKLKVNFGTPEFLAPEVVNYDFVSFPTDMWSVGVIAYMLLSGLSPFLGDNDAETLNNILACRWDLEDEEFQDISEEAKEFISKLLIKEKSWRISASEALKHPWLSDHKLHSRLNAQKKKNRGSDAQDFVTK

[6] = target: T1, Vascular endothelial growth factor receptor 2; assay: Inhibition of VEGFR2 (unknown origin) using poly[Glu:Tyr] (4:1) as substrate at 20 uM incubated for 45 mins by kinase-glo max reagent based luminescence analysis relative to control
[7] = target: Mast/stem cell growth factor receptor Kit (Homo sapiens) (UniProt P10721); assay: Inhibition of c-KIT (unknown origin) assessed as residual activity at 10 uM incubated for 1 hr by KinomeScan analysis relative to control
[8] = target: Activated CDC42 kinase 1 (Homo sapiens) (UniProt Q07912); assay: Inhibition of TNK2 (unknown origin) assessed as residual activity at 10 uM incubated for 1 hr by KinomeScan analysis relative to control
[9] = target: T1, Vascular endothelial growth factor receptor 2; assay: Inhibition of VEGFR2 (unknown origin) using poly[Glu:Tyr] (4:1) as substrate incubated for 45 mins by kinase-glo max reagent based luminescence analysis
Carbonic anhydrase 12 = Carbonic anhydrase 12 (Homo sapiens, UniProt O43570); assay: Inhibition of recombinant human carbonic anhydrase 12 assessed as inhibition constant incubated for 1 hr prior to testing by phenol red based stopped-flow CO2 hydration assay
Carbonic anhydrase 2 = Carbonic anhydrase 2 (Homo sapiens, UniProt P00918); assay: Inhibition of recombinant human carbonic anhydrase 2 assessed as inhibition constant incubated for 1 hr prior to testing by phenol red based stopped-flow CO2 hydration assay
Carbonic anhydrase 9 = Carbonic anhydrase 9 (Homo sapiens, UniProt Q16790); assay: Inhibition of recombinant human carbonic anhydrase 9 assessed as inhibition constant incubated for 1 hr prior to testing by phenol red based stopped-flow CO2 hydration assay
Carbonic anhydrase 1 = Carbonic anhydrase 1 (Homo sapiens, UniProt P00915); assay: Inhibition of recombinant human carbonic anhydrase 1 assessed as inhibition constant incubated for 1 hr prior to testing by phenol red based stopped-flow CO2 hydration assay
Chain of Carbonic anhydrase 1 (P00915 whole entry): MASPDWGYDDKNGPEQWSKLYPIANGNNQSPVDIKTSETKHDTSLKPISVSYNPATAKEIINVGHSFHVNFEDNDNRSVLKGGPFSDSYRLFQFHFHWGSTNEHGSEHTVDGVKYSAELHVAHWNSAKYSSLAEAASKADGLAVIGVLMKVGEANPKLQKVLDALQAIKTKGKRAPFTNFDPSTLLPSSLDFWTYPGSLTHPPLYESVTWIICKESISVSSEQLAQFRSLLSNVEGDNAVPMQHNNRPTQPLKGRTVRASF

Chain of Carbonic anhydrase 12 (O43570 whole entry): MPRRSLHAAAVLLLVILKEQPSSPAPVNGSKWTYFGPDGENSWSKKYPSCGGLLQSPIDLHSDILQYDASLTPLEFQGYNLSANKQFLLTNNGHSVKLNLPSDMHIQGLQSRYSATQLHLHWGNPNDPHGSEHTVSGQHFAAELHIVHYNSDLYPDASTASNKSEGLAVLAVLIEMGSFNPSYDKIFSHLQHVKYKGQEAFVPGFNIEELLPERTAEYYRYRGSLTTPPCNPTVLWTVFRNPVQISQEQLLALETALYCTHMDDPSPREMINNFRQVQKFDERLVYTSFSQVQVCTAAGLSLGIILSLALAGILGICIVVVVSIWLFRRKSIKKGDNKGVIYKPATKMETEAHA
T1 sequence (P35968 whole entry): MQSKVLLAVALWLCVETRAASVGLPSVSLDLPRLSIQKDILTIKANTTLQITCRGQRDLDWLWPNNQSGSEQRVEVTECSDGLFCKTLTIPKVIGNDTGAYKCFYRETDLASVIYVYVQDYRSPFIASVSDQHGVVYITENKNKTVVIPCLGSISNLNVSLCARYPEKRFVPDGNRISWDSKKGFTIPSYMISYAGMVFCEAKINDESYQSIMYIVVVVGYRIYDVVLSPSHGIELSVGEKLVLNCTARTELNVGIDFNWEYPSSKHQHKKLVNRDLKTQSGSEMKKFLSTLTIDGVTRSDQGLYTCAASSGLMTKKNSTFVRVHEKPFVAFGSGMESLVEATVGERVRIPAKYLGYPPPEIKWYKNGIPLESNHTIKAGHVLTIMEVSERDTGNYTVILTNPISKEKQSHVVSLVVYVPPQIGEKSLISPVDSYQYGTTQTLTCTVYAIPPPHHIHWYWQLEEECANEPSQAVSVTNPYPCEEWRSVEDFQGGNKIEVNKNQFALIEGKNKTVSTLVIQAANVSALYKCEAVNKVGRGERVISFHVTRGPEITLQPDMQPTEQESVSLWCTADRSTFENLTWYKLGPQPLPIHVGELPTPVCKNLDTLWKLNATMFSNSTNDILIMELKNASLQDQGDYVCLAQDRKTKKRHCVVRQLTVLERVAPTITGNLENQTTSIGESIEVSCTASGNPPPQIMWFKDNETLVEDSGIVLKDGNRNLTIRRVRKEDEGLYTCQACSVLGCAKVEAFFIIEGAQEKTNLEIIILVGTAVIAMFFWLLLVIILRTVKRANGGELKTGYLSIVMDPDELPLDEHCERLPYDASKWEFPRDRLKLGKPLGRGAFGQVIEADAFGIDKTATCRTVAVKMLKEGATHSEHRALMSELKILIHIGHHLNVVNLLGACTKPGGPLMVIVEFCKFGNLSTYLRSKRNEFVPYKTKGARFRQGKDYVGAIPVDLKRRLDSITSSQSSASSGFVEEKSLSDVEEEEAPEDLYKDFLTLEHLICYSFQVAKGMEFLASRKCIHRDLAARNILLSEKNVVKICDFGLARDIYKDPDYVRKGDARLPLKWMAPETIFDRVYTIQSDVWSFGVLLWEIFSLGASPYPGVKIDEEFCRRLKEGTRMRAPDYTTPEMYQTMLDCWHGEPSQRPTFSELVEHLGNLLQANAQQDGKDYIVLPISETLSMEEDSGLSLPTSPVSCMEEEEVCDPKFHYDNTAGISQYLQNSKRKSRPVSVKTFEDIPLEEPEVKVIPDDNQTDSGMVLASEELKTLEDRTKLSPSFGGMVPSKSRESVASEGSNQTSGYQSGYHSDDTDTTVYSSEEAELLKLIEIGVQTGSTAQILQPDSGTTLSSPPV
Chain of Activated CDC42 kinase 1 (Homo sapiens) (Q07912 whole entry, looked up): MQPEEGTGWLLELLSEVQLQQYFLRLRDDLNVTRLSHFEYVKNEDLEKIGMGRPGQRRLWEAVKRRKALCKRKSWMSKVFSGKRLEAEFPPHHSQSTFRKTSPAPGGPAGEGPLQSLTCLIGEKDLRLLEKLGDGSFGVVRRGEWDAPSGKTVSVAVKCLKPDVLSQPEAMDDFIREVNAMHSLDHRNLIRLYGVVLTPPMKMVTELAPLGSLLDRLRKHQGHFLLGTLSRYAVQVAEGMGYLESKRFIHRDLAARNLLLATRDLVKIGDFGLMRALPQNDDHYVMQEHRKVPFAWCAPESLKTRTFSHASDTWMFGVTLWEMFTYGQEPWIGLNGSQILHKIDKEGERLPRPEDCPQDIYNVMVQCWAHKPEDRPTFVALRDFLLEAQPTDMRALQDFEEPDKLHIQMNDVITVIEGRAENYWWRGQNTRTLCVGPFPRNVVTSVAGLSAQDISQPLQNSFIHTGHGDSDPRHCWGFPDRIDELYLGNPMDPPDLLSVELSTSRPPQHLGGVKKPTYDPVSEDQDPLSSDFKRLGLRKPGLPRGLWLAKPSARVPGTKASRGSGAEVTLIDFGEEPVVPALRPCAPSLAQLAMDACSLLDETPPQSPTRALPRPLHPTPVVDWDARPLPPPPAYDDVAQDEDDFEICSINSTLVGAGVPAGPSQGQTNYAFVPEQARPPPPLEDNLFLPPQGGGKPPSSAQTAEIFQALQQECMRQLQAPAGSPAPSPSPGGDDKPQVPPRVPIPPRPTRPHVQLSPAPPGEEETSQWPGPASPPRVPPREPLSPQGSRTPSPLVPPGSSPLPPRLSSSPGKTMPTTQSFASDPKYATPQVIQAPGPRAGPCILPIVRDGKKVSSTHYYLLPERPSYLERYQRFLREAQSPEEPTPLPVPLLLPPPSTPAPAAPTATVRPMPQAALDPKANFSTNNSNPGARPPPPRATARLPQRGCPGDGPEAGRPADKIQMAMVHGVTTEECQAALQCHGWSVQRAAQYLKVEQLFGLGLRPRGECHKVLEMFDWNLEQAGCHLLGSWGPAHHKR
Chain of Mast/stem cell growth factor receptor Kit (Homo sapiens) (P10721 whole entry): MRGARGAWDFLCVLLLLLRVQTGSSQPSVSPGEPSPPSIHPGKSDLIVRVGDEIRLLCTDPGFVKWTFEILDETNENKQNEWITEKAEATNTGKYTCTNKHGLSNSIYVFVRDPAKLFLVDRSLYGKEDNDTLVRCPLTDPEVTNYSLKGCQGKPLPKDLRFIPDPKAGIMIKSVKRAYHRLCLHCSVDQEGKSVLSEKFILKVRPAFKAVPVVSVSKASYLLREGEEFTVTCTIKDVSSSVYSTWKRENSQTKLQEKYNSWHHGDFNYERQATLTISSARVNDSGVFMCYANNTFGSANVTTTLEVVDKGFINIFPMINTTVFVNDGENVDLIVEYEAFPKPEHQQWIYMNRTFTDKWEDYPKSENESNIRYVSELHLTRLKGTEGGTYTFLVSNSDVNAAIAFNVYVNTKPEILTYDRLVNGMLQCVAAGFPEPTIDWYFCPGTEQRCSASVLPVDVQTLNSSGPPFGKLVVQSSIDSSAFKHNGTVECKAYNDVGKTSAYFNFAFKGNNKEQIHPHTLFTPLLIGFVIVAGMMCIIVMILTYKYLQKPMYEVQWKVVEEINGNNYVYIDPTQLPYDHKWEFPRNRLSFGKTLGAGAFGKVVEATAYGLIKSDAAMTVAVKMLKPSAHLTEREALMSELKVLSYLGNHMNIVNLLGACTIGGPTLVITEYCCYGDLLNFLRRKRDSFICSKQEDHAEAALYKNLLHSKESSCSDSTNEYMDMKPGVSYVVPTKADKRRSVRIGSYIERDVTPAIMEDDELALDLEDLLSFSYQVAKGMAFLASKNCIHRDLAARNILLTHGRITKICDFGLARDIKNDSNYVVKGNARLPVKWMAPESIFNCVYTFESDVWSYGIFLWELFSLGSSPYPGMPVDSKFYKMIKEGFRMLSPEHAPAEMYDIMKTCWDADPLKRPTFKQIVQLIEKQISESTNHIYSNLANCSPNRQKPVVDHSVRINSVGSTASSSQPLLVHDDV

SMILES	IC50 (MDA-MB-468) [µM]	growth, % of control at 20 µM (HUVEC) [%]	other results
O=S1(=O)N=C(NCc2ccc(OC(F)(F)F)cc2)Nc2ccc(Cl)cc21	43.4	120	
COc1ccc(CNC2=NS(=O)(=O)c3ccc(Cl)cc3N2)cc1		132	
O=S1(=O)N=C(NCCc2ccccc2)Nc2cc(Cl)ccc21		197	
O=S1(=O)N=C(NCc2ccc(C(F)(F)F)cc2)Nc2cc(Cl)ccc21		8.6	
COc1ccccc1CNC1=NS(=O)(=O)c2cc(F)ccc2N1		29.4	
Cc1ccc(CNC2=NS(=O)(=O)c3cc(Cl)ccc3N2)cc1	43.1	119	
O=S1(=O)N=C(NCc2ccc(F)cc2)Nc2ccc(Cl)cc21		70.4	
O=S1(=O)N=C(NC2CCCC2)Nc2ccc(Cl)cc21	77		inhibition [1]: Active
O=S1(=O)N=C(NCCc2c[nH]c3ccccc23)Nc2ccc(F)cc21		41.8	
O=S1(=O)N=C(NCc2ccc(OC(F)(F)F)cc2)Nc2ccccc21	71	88.6	
Cc1cccc(CNC2=NS(=O)(=O)c3ccc(Cl)cc3N2)c1		125	
CC(NC1=NS(=O)(=O)c2cc(Cl)ccc2N1)c1ccccc1 (stereo not given)		53.7	
CC1=Nc2ccc(Cl)cc2S(=O)(=O)N1 [DIAZOXIDE]		15.2	
O=S1(=O)N=C(NCc2ccc(OC(F)(F)F)cc2)Nc2cc(Cl)ccc21	48	199	Activity [2]: 8%; IC50 at 72 h [3]: 77.2 µM; selectivity ratio [4]: 1.6; Activity [5]: 33%; inhibition [6]: 33%; Activity [7]: 32%; Activity [8]: 0.1%; IC50 [9]: 140 µM; inhibition [1]: Active
O=S1(=O)N=C(NCc2ccc(F)cc2F)Nc2ccc(Cl)cc21	45.5	133	IC50 at 72 h [3]: 58.9 µM; selectivity ratio [4]: 1.3
COc1ccc(CNC2=NS(=O)(=O)c3cc(Cl)ccc3N2)cc1	62.9	90.7	Ki (Carbonic anhydrase 12): > 100 µM; Ki (Carbonic anhydrase 2): > 100 µM; Ki (Carbonic anhydrase 9): > 100 µM; Ki (Carbonic anhydrase 1): > 100 µM
O=S1(=O)N=C(NCCCc2ccccc2)Nc2ccc(Br)cc21		28.6	
CSC1=NS(=O)(=O)c2ccc(Cl)cc2N1		20.9	
O=S1(=O)N=C(NCCCc2ccccc2)Nc2ccc(Cl)cc21	56.6	91.6	IC50 at 72 h [3]: 30.9 µM; selectivity ratio [4]: 0.5
Cc1ccc(CNC2=NS(=O)(=O)c3ccc(Cl)cc3N2)cc1		146	
CCNC1=NS(=O)(=O)c2ccccc2N1		88.4	
NS(=O)(=O)c1ccc(CCNC2=NS(=O)(=O)c3ccc(Cl)cc3N2)cc1			Ki (Carbonic anhydrase 12): 0.0038 µM; Ki (Carbonic anhydrase 2): 0.0088 µM; Ki (Carbonic anhydrase 1): 0.0501 µM
COc1cccc(CNC2=NS(=O)(=O)c3cc(Cl)ccc3N2)c1	> 100	95.5	inhibition [1]: Active
Cc1ccccc1CNC1=NS(=O)(=O)c2ccc(Cl)cc2N1		112	
CCCCCC(=O)c1c(O)nc(OC)c(OC)c1O	6.71		IC50 at 72 h [3]: 25.9 µM; selectivity ratio [4]: 3.9
Cc1cccc(CNC2=NS(=O)(=O)c3cc(Cl)ccc3N2)c1	117	145	inhibition [1]: Active

SMILES	IC50 (MDA-MB-468) [µM]	growth, % of control at 20 µM (HUVEC) [%]	other results
O=S1(=O)N=C(NCc2ccc(F)cc2F)Nc2ccc(Br)cc21		127	
O=S1(=O)N=C(NCCCc2ccccc2)Nc2cc(Cl)ccc21	91.9	175	IC50 at 72 h [3]: 111 µM; selectivity ratio [4]: 1.2
O=S1(=O)N=C(NCc2ccncc2)Nc2ccc(Cl)cc21		66.8	
CSC1=NS(=O)(=O)c2cc(F)ccc2N1C		70.1	
COc1ccc(CCNC2=NS(=O)(=O)c3cc(F)ccc3N2)cc1			Ki (Carbonic anhydrase 12): > 100 µM; Ki (Carbonic anhydrase 2): > 100 µM; Ki (Carbonic anhydrase 9): > 100 µM; Ki (Carbonic anhydrase 1): > 100 µM
O=S1(=O)N=C(NCc2ccccc2)Nc2cc(Cl)ccc21	64.2	200	IC50 at 72 h [3]: 102 µM; selectivity ratio [4]: 1.5
O=S1(=O)N=C(NCCCc2ccccc2)Nc2ccccc21		53.6	
Cc1ccccc1CNC1=NS(=O)(=O)c2cc(Cl)ccc2N1		117	
O=S1(=O)N=C(NCCc2ccccc2)Nc2ccc(Br)cc21		52.7	
O=S1(=O)N=C(NCCCCc2ccccc2)Nc2ccc(Cl)cc21		116	IC50 at 72 h [3]: 23.4 µM
CC(NC1=NS(=O)(=O)c2ccccc2N1)c1ccccc1 (stereo not given)	58.5	25.2	inhibition [1]: Active
O=S1(=O)N=C(NCc2ccc(OC(F)(F)F)cc2)Nc2ccc(Br)cc21	39.1	127	Ki (Carbonic anhydrase 12): > 100 µM; Ki (Carbonic anhydrase 2): > 100 µM; Ki (Carbonic anhydrase 9): > 100 µM; Ki (Carbonic anhydrase 1): > 100 µM; inhibition [1]: Active
COc1ccccc1CNC1=NS(=O)(=O)c2ccc(Cl)cc2N1		83.9	
CC(C)C(C)NC1=NS(=O)(=O)c2cc(F)ccc2N1 (stereo not given)		76.4	
O=S1(=O)N=C(NCc2ccc(F)cc2F)Nc2cc(Cl)ccc21	84.6	172	IC50 at 72 h [3]: 129 µM; selectivity ratio [4]: 1.5
O=S1(=O)NC(=S)Nc2ccc(F)cc21		50.1	
COc1cccc(CCNC2=NS(=O)(=O)c3ccc(Cl)cc3N2)c1		103	
O=S1(=O)N=C(NCCc2ccccc2)Nc2ccc(Cl)cc21		81.7	
O=S1(=O)N=C(NC2CCCC2)Nc2cc(Cl)ccc21	148	174	
COc1cccc(CNC2=NS(=O)(=O)c3ccc(Cl)cc3N2)c1		129	
O=S1(=O)N=C(NCCc2c[nH]c3ccccc23)Nc2cc(Cl)ccc21		34.1	
CC(NC1=NS(=O)(=O)c2ccc(Cl)cc2N1)c1ccccc1 (stereo not given)	91.1	40.5	
CC(NC1=NS(=O)(=O)c2cc(Br)ccc2N1)c1ccccc1 (stereo not given)		104	
O=S1(=O)N=C(NCc2ccccc2)Nc2ccc(Cl)cc21		122	
O=S1(=O)N=C(NCc2ccccc2OC(F)(F)F)Nc2cc(Cl)ccc21	14.9	124	IC50 at 72 h [3]: 30.5 µM; selectivity ratio [4]: 2
